Reference: publication PMC2748101, “Transcriptome analysis of the responses of Staphylococcus aureus to antimicrobial peptides and characterization of the roles of vraDE and vraSR in antimicrobial resistance” (BMC Genomics, 2009)
Values joined by “and” are separate entries in the source; they are usually repeats but may differ in a detail not shown here. Equal entries are not always repeated. Where no end group is shown, it is not given here.

Columns and labels:
S. aureus Newman [1] = assay type: cell-based, Staphylococcus aureus
ΔvraDE/ RN4220 = conditions: Mueller-Hinton broth, 16-24 h, 37°C, two-fold dilution series, performed twice
ΔvraSR/ RN4220 = conditions: Mueller-Hinton broth, 16-24 h, 37°C, two-fold dilution series, performed twice
S. aureus Newman [2] = conditions: S. aureus Newman; Mueller-Hinton broth, 16-24 h, 37°C, two-fold dilution series, performed twice
ΔvraSR/S. aureus Newman = conditions: for MIC: ΔvraSR/S. aureus Newman, 16-24 h, 37°C, two-fold dilution series, performed twice; for Effect of the ΔvraSR mutation on sensitivity: MIC, 100%, 50% (LL-37, nisin, Pep5) or 25% (hBD3) Mueller-Hinton broth
ΔvraDE/S. aureus Newman = conditions: ΔvraDE/S. aureus Newman; Mueller-Hinton broth, 16-24 h, 37°C, two-fold dilution series, performed twice
S. aureus RN4220 = conditions: Mueller-Hinton broth, 16-24 h, 37°C, two-fold dilution series, performed twice
S. aureus Newman [3] = assay: qRT-PCR of gene induction in treated wild-type cells; assay type: cell-based, Staphylococcus aureus; conditions: 10 min, 5 × MIC (temporin-L-NH2 subinhibitory 2 μg/ml, pentaglycine 20 μg/ml), treated/untreated, mean of three experiments (SD)

ALWKTLLKKVLKAAAK-NH2 [Dermaseptin K4-S4(1-16)-NH2]
Number of genes with decreased expression (S. aureus Newman [1]): 134 genes
Fold induction SA0336 (S. aureus Newman [1]; n=3): 2.2, 2.1, 2.1 fold
Fold induction SA0342 (S. aureus Newman [1]; n=3): 2.2, 2.2 fold
Fold induction SA0358 (S. aureus Newman [1]; n=3): 2.4, 2.4 fold
Fold induction SA0428 (S. aureus Newman [1]; n=3): 2.3 fold and 3.6, 2.4, 2.3 fold
Fold induction SA0526 (S. aureus Newman [1]; n=3): 2.2, 2.0 fold
Fold induction SA0591 (S. aureus Newman [1]; n=3): 2.1 fold and 3.0, 3.3, 2.1 fold
Fold induction SA0825 (spsA) (S. aureus Newman [1]; n=3): 2.0 fold and 2.6, 3.5, 2.0 fold
Fold induction SA0826 (spsB) (S. aureus Newman [1]; n=3): 2.1, 2.7, 2.0 fold
Fold induction SA0903 (S. aureus Newman [1]; n=3): 2.6 fold and 2.1, 4.1, 2.6 fold
Fold induction SA0914 (S. aureus Newman [1]; n=3): 2.3, 2.5, 2.0 fold
Fold induction SA0962 (S. aureus Newman [1]; n=3): 2.4, 2.8, 2.4 fold
Fold induction SA1184 (citB) (S. aureus Newman [1]; n=3): 2.5, 2.4, 2.0 fold
Fold induction SA1217 (S. aureus Newman [1]; n=3): 3.0, 2.4 fold
Fold induction SA1218 (pstB) (S. aureus Newman [1]; n=3): 2.9 fold
Fold induction SA1219 (S. aureus Newman [1]; n=3): 4.2 fold and 5.4, 4.2 fold
Fold induction SA1220 (S. aureus Newman [1]; n=3): 2.3, 2.1 fold
Fold induction SA1221 (S. aureus Newman [1]; n=3): 3.1, 2.8 fold
Fold induction SA1235 (S. aureus Newman [1]; n=3): 2.4, 2.1, 2.6 fold
Fold induction SA1476 (S. aureus Newman [1]; n=3): 3.3 fold and 4.2, 5.3, 3.3 fold
Fold induction SA1477 (S. aureus Newman [1]; n=3): 5.5, 6.8, 3.8 fold
Fold induction SA1517 (citC) (S. aureus Newman [1]; n=3): 3.1 fold and 4.9, 5.8, 3.1 fold
Fold induction SA1518 (citZ) (S. aureus Newman [1]; n=3): 6.0, 6.7, 3.6 fold
Fold induction SA1549 (htrA) (S. aureus Newman [1]; n=3): 2.0 fold and 2.9, 3.0, 2.0 fold
Fold induction SA1659 (prsA) (S. aureus Newman [1]; n=3): 2.9 fold and 3.2, 4.5, 2.9 fold
Fold induction SA1700 (vraR) (S. aureus Newman [1]; n=3): 3.2, 5.0, 2.8 fold
Fold induction SA1701 (vraS) (S. aureus Newman [1]; n=3): 2.5 fold and 3.9, 5.3, 2.5 fold
Fold induction SA1702 (S. aureus Newman [1]; n=3): 4.3, 5.7, 2.6 fold
Fold induction SA1703 (S. aureus Newman [1]; n=3): 3.7, 4.2, 2.1 fold
Fold induction SA1706 (S. aureus Newman [1]; n=3): 2.0, 2.0, 2.1 fold
Fold induction SA1710 (S. aureus Newman [1]; n=3): 2.2, 2.4, 2.1 fold
Fold induction SA1820 (S. aureus Newman [1]; n=3): 2.2 fold and 3.6, 3.0, 2.2 fold
Fold induction SA1836 (groEL) (S. aureus Newman [1]; n=3): 2.2 fold and 3.8, 4.3, 2.2 fold
Fold induction SA1837 (groES) (S. aureus Newman [1]; n=3): 3.2, 3.6, 2.4 fold
Fold induction SA1858 (ilvD) (S. aureus Newman [1]; n=3): 4.9, 2.5, 2.1 fold
Fold induction SA1860 (S. aureus Newman [1]; n=3): 15.7, 4.3, 2.1 fold
Fold induction SA1863 (leuB) (S. aureus Newman [1]; n=3): 9.7, 4.2, 2.2 fold
Fold induction SA1971 (S. aureus Newman [1]; n=3): 2.2, 2.5, 2.2 fold
Fold induction SA1990 (S. aureus Newman [1]; n=3): 2.2 fold and 3.4, 2.6, 2.2 fold
Fold induction SA2113 (S. aureus Newman [1]; n=3): 2.2 fold and 2.2, 3.7, 2.2 fold
Fold induction SA2301 (S. aureus Newman [1]; n=3): 2.3, 2.2, 2.1 fold
Fold induction SA2343 (S. aureus Newman [1]; n=3): 2.7 fold and 4.3, 4.3, 2.7 fold
Fold induction SA2481 (S. aureus Newman [1]; n=3): 2.1, 3.1, 2.7 fold
Fold induction SA2493 (vraE) (S. aureus Newman [1]; n=3): 3.4, 11.8, 6.2 fold
Fold induction SAS016 (S. aureus Newman [1]; n=3): 5.4 fold and 5.0, 7.4, 5.4 fold

FVQWFSKFLGRIL-NH2 [Temporin L-NH2]
MIC (ΔvraDE/ RN4220): 3 µg/mL
MIC (ΔvraSR/ RN4220): 3 µg/mL
MIC (S. aureus Newman [2]): 6 µg/mL
MIC (ΔvraSR/S. aureus Newman; Mueller-Hinton broth): 6 µg/mL
MIC (ΔvraDE/S. aureus Newman): 6 µg/mL
MIC (S. aureus RN4220): 3 µg/mL

KNLRRIIRKIIHIIKKYG-NH2 [Ovispirin-1-NH2]
MIC (ΔvraDE/ RN4220): 20 µg/mL
MIC (ΔvraSR/ RN4220): 10 µg/mL
MIC (S. aureus Newman [2]): 20 µg/mL
MIC (ΔvraSR/S. aureus Newman; Mueller-Hinton broth): 10 µg/mL
MIC (ΔvraDE/S. aureus Newman): 20 µg/mL
MIC (S. aureus RN4220): 20 µg/mL

KNLRRIIRKIIHIIKKYG-OH [Ovispirin-1]
MIC (ΔvraDE/ RN4220): 20 µg/mL
MIC (ΔvraSR/ RN4220): 20 µg/mL
Fold induction SA0205 (S. aureus Newman [3]): 5.1 (1.0) fold
Fold induction groEL (S. aureus Newman [3]): 2.5 (0.5) fold
Fold induction prsA (S. aureus Newman [3]): 7.2 (1.6) fold
Fold induction vraD (S. aureus Newman [3]): 3.7 (0.5) fold
MIC (S. aureus Newman [2]): 20 µg/mL
Effect of the ΔvraSR mutation on sensitivity (ΔvraSR/S. aureus Newman): did not affect the sensitivity
MIC (ΔvraSR/S. aureus Newman; Mueller-Hinton broth): 20 µg/mL
MIC (ΔvraDE/S. aureus Newman): 20 µg/mL
MIC (S. aureus RN4220): 20 µg/mL

LL-37: human cathelicidin (LLGDFFRKSKEKIGKEFKRIVQRIKDFLRNLVPRTES; Antibacterial peptide LL-37; UniProt P49913 134-170, looked up)
Effect of the ΔvraSR mutation on sensitivity (ΔvraSR/S. aureus Newman): did not affect the sensitivity

Nisin: lantibiotic (ITSISLCTPGCKTGALMGCNMKTATCHCSIHVSK; also: lantibiotic, modified residues and thioether rings not given here; UniProt P13068 24-57, looked up)
MIC (S. aureus Newman [2]): 6.25 µg/mL
Effect of the ΔvraSR mutation on sensitivity (ΔvraSR/S. aureus Newman): did not affect the sensitivity
MIC (S. aureus RN4220): 6.25 µg/mL

Teicoplanin
MIC (ΔvraSR/ RN4220): 0.06 µg/mL
Fold induction SA0205 (S. aureus Newman [3]): 35.7 (6.9) fold
Fold induction groEL (S. aureus Newman [3]): 3.0 (0.3) fold
Fold induction prsA (S. aureus Newman [3]): 32.1 (4.1) fold
Fold induction vraD (S. aureus Newman [3]): 2.5 (0.3) fold
MIC (S. aureus Newman [2]): 0.5 µg/mL
Difference in MIC (increased sensitivity), ΔvraSR mutant versus wild-type (ΔvraSR/S. aureus Newman; Mueller-Hinton broth): 4 fold
MIC (ΔvraSR/S. aureus Newman; Mueller-Hinton broth): 0.125 µg/mL
MIC (ΔvraDE/S. aureus Newman): 0.5 µg/mL
MIC (S. aureus RN4220): 0.25 µg/mL

hBD3 (GIINTLQKYYCRVRGGRCAVLSCLPKEEQIGKCSTRGRKCCRRKK; UniProt P81534 23-67, looked up)
Effect of the ΔvraSR mutation on sensitivity (ΔvraSR/S. aureus Newman): did not affect the sensitivity
